# Source: patent EP0043274A2, “Antithrombotic treatment” (priority 1980, dated 1982)
# Like-named read-outs stand apart in the source and are kept apart here.
# Tests used:
# [1] = tested on: human platelet rich plasma; test: Platelet aggregation in platelet rich plasma, platelet aggregometer (technique of Born); assay type: cell-based; settings: platelet rich plasma from men
# From the text: A present preference for purposes of evaluating an - antithrombotic effect is to withdraw samples of blood from a patient undergoing treatment and to measure platelet aggregation. One method is described in the paper by Born in Nature 194, pp. 927-929 (1962), which may be used for this purpose if desired.
# That sodium bisulfite is an antiplatelet aggregatory agent is shown by using a platelet aggregometer based on the technique of Born (above cited).
# (§1) Platelet rich plasma from rabbit and men was prepared by the centrugation technique referenced in Example 13. Using ADP (adosine diphosphate) as a stimulus rapid aggregation of platelets occurred. […] This procedure is described in the article by Born in Nature, Vol. 194, pgs. 927-929 (1962).
# as §1, with “rabbits” for “rabbit”, “diphosphate) arachidonic acid” for “diphosphate)”, “stimulus,” for “stimulus”, “Born,” for “Born in”
# [2] = tested on: rabbit platelet rich plasma; test: as above; assay type: cell-based; settings: platelet rich plasma from rabbit
# Experimental: as §1
# as §1, with “rabbits” for “rabbit”, “diphosphate) arachidonic acid” for “diphosphate)”, “stimulus,” for “stimulus”, “Born,” for “Born in”
# human plasma [3] = assay type: biochemical
# human plasma [4] = assay type: biochemical; remark: listed apart in the source
# [5] = tested on: thrombus formation in the jugular vein; test: I 125 fibrinogen technique, damaged jugular vein (venous thrombosis), continuous infusion; assay type: in vivo, rabbits
# Experimental: The anti venous thrombotic effect of sodium bisulfite is evaluated in rabbits by using I ^125 fibrinogen technique as described in an article in "Archives of Surgery" Vol. 104, pg. 152 (1972).
# The rabbit was continuously infused with aqueous sodium bisulfite solution at the rate of […]. (5.154 gram per hour) (animal body weight 2.3 kg) for a time of five hours. After 5 hours, the animal was sacrificed and the radioactive fibrinogen accumulated in the damaged jugular vein was determined. The radioactivity on the contra-lateral (undamaged) jugular vein was also determined to serve as a control. Concurrently, another rabbit had experienced the same procedure but received only a standard sodium chloride solution as a control. The rabbit from the normal saline solution has seven times as much radioactivity as his counterpart infused with sodium bisulfite.
# Two jugular veins on a normal, healthy rabbit are exposed and one of the veins is systematically damaged by clamping in two longitudinally spaced places. The rabbit is then continuously infused with aqueous sodium formaldehyde bisulfite at the rate of […] (5.154 gram per hour) (animal body weight 2.3 kg). The rabbit is then injected with fibrinogen labeled with I^125. After 5 hours, the damaged jugular vein is evaluated for radioacive count with a Geiger counter.
# This iodine 125 evaluation technique is described by Kakkar in Archieves of Surgery, Vol. 104, pg. 152 (1972) and by Kelton, J.G. et al, Journal of Clinical Investigation, Vol. 62, pgs. 892-895, (1978). […] Other rabbits, similarly evaluated, died, apparently because of overdose by the infustion technique.
# platelet rich plasma = test: Platelet aggregation in platelet rich plasma from injected rabbit (ex vivo); settings: injected with about 72 mg/kg of body weight; blood sample after 5 hours
# Experimental: (§2) A rabbit is injected with about +72 mg/kg of body weight of triethyl amine bisulfite. After a period of 5 hours, a blood sample was withdrawn and centrifuged at 1000 r.p.m. (220 g) for 10 minutes to give a platelet rich plasma. […] It is concluded that triethyl amine bisulfite is an agent which inhibits thrombotic condition formation in vivo.
# as §2, with “72” for “+72”, “sodium formaldehyde” for “triethyl amine”, “minuts” for “minutes”, “thrombus” for “thrombotic condition”
# thrombus = test: Antithrombotic effect in rabbit (Kelton et al); assay type: in vivo; settings: 50 mg/kg
# From the text: Evaluation of the antithrombotic effect of sodium formaldehyde bisulfite was caried out on a rabbit as described in Kelton et al: "Thrombogenic Effect of High Dose Aspirin in Rabbits", Journal of Clinical Investigation", Volume 62, pages 892-895, 1978.
# blood = test: PT and PTT of blood after oral gavage; assay type: in vivo, rabbit; settings: orally by gavage about 50 mg/kg in two spaced doses (solution of Example X); after 1 day
# [6] = continuous infusion for five hours
smiles,measurement,setting,value
O=S(=O)(O)CO [Sodium formaldehyde bisulfite],"platelet aggregation, ADP (adosine diphosphate) as a stimulus",[1],strong inhibition of platelet aggregation
same,"platelet aggregation, ADP (adosine diphosphate) as a stimulus",[2],strong inhibition of platelet aggregation
same,PT,human plasma [3],19.68 s
same,PT,"human plasma [3]; 0.01 Molar, control 12.5",24.4
same,PT,"human plasma [3]; coded agents 0.5mg/ml, […], control 12.92",19.50 s
same,PT REPLICATIONS I,human plasma [3]; control 13.1 (14.1 for Sodium formaldehyde Bisulfite),20.5
same,PT (effect in words),"human plasma [3]; in vitro, 0.5 mg/ml",effective
same,PTT,"human plasma [4]; 0.5 mg/ml, two different days, control 42.6 / 42.10",56.30 s
same,PTT,"human plasma [4]; 0.01 Molar, control 33.4",54.6
same,PTT,"human plasma [4]; coded agents 0.5mg/ml, […], control 43.38",58.60 s
same,PTT REPLICATIONS I,human plasma [4]; control 38.2 (50.5 for Sodium formaldehyde Bisulfite),63.5
same,PTT (effect in words),"human plasma [4]; in vitro, 0.5 mg/ml",effective
same,mortality of infused rabbits,[5]; continuous infusion,died
same,radioactivity (I 125 fibrinogen) in damaged jugular vein of saline control rabbit relative to treated rabbit,[5]; [6],more radioactivity
same,thrombus formation in the jugular vein (conclusion in words),[5]; [6],definite positive effect of decreasing thrombus formation
same,aggregation of platelets in comparison with an untreated rabbit,platelet rich plasma,markedly decreased
same,disappearance of the thrombus compared with a control animal,thrombus,the thrombus disappeared more rapidly
same,PT and PTT values of the animal's blood compared with untreated control rabbit,blood,lengthened
